Laboratory results as given in patent US20210023029A1, “EDASALONEXENT DOSING REGIMEN FOR TREATING MUSCULAR DYSTROPHY” (Catabasis Pharmaceuticals, Inc., priority 2017, published 2021).
“Also recorded” adds a separate entry of the source. Where two headings read alike, the source gives them in different places.

Legend:
mdx mice [1] = settings: cited from earlier work
[2] = Edasalonexent dosing regimen pharmacokinetics in C57BL/6 mice (diet or oral gavage, LC/MS/MS); assay type: in vivo; settings: for AUC / Cmax / Tmax / AUC(0-t): C57BL/6, mouse; for AUC(0-t): read-out: AUC0-24 h, day 3 (±SE)
Method: C57BL/6 mice were administered edasalonexent in their diet and/or by oral gavage. Pharmacokinetic (PK) modeling was used to identify suitable dosing amounts and timing in relation to the doses of 67 mg/kg/day and 100 mg/kg/day that have been tested in edasalonexent human clinical trials. Specifically, mice were administered 1.5% edasalonexent in their diet, 450 mg/kg/day delivered orally as single daily dose, 450 mg/kg/day delivered orally as three equally divided doses, or 600 mg/kg/day delivered orally as two 150 mg/kg/doses and one 300 mg/kg/dose. For dosing regimens with three daily doses, doses were delivered at 7:00 am, noon and 5:00 pm.
The dosing regimens for each group are depicted in TABLE 1. Each group included 12 mice.
For animals administered edasalonexent in their diet, edasalonexent concentration was measured by LC/MS/MS every 4 hours for 24 hours, beginning on the seventh day of dosing. For animals administered edasalonexent orally, edasalonexent concentration was measured by LC/MS/MS at 0.25, 0.5, 1, 2, 4, 6 and 24 hours after dosing, beginning on the third day of dosing.

boys with DMD = assay: MoveDMD trial: NSAA and timed function tests in boys with DMD; assay type: in vivo, human
Method: The MoveDMD trial (see FIG. 10) was designed to evaluate efficacy, safety/tolerability, pharmacokinetics (PK), pharmacodynamics (PD), and dose response of edasalonexent. The first phase portion of the MoveDMD trial was a 1-week study to evaluate the safety, PK, and PD at 33 and 67 mg/kg/day, given in 2 divided doses, and 100 mg/kg/day given in 3 divided doses. The second phase and the open-label extension (OLE) portions of the MoveDMD trial enrolled boys ages 4 through 7 with DMD. Phase 2 was a 12-week placebo-controlled study with two cohorts given 33 mg/kg twice daily (BID; 67 mg/kg/day; n=10) or 33 mg/kg three times daily (TID; 100 mg/kg/day; n=10), and a placebo cohort (n=10). Patients in the OLE continued with either dose regimen of edasalonexent. The North Star Ambulatory Assessment (NSAA) is a validated functional scale specifically designed for ambulant boys with DMD and measures overall function in young boys. […] The 10-meter walk/run, 4-stair climb, and time to stand are all timed tests used as a measure of function in boys with DMD. In each of these tests, as shown in FIGS. 15-17, the average rate of change of speed by study subjects in completing these physical tasks stabilized during the 60 week 100 mg/kg/day edasalonexent treatment period as compared with the rate of change during the off-treatment control period (36 weeks preceding the treatment period). All timed function test values stabilized during the treatment period.

[3] = test system: NF-κB regulated and inflammation-related gene transcripts; assay: MoveDMD trial: NF-κB regulated and inflammation-related gene transcripts in whole blood (RNA sequencing); assay type: in vivo, human; settings: one week treatment
Method: To determine the effects of a given edasalonexent dosing regimen on NF-κB inhibition, the expression levels of a number of NF-κB regulated and inflammation-related gene transcripts were measured in whole blood samples from DMD patients.
NF-kB regulated and inflammation-related genes were chosen from the Broad Institute's HALLMARK TNF/NF-kB gene set (Liberzon, et. al., (2015), Cell Systems, 1(6):417-425). Blood was drawn from DMD boys before and one-week after edasalonexent treatment, and collected into PAXgene RNA tubes (Qiagen). RNA was extracted and sequenced to directly measure the abundance of transcripts in whole blood for both time points in each patient, and the abundance of transcripts one-week post treatment was compared to pre-treatment values to determine the relative change in each of the selected transcripts. This ratio for each gene across all patients within a dose cohort was averaged and is shown in FIG. 12 by columns as average +/−SEM. A value less than 1 indicates a decrease in the transcripts after one-week treatment with edasalonexent.

mdx mice [4] = assay: Quadriceps muscle inflammation and fibrosis in young mdx mice treated four weeks (H&E and picrosirius red staining); assay type: in vivo
Method: Young mdx mice were treated for four weeks with varying dosing regimens of edasalonexent. The mdx mouse is a useful and generally accepted animal model for studying Duchenne muscular dystrophy (DMD) (Mann et al. (2001) PROC. NATL. ACAD. SCI. 98(1):42-7). mdx mice are deficient in expression of full-length dystrophin due to a genetic mutation within the dystrophin gene.
Mice were administered edasalonexent in their diet, and/or by oral gavage. Specifically, mice were administered 1% edasalonexent in their diet, 450 mg/kg/day delivered orally as single daily dose, 450 mg/kg/day delivered orally as three equally divided doses, and/or 600 mg/kg/day delivered orally as two 150 mg/kg/doses and one 300 mg/kg/dose. For dosing regimens with three daily doses, doses were delivered at 7:00 am, noon and 5:00 pm.
The dosing regimens for each treatment group are depicted in TABLE 4. Each treatment group included 10-11 mice.
Animals were treated for four weeks, sacrificed, and tissues were collected for histological analysis. For assessment of inflammation and fibrosis, quadriceps muscles were processed for hematoxylin and eosin (H&E) and picrosirius red (collagen) histochemical staining. From each animal, 2-4 complete transverse sections were digitally analyzed using ImageJ, with the hematoxylin-stained nuclear area determined as a measure of inflammatory infiltration, and the picrosirius red-stained area determined as a measure of fibrosis.

NF-κB = settings: dog model of DMD; cited from earlier work
[5] = gastrocnemius, 1.5% edasalonexent in diet (group 1)
[6] = 100 mg/kg/day, 60 weeks, compared to 36 week off-treatment control period
[7] = group 2, 1% edasalonexent in diet
[8] = group 4, oral QD 450 mg/kg/dose
[9] = group 7, oral TID 150/150/300 mg/kg/dose = 600 mg/kg/day

**Q.** Which “diaphragm function and cumulative run distance” value (mdx mice [1]; long-term studies on mdx mice (Milne et al. 2014)) does the source give for `CC/C=C\C/C=C\C/C=C\C/C=C\C/C=C\C/C=C\CCC(=O)NCCNC(=O)c1ccccc1O` [edasalonexent, N-(2-[(4Z,7Z,10Z,13Z,16Z,19Z)-docosa-4,7,10,13,16,19-hexaenamido]ethyl)-2-hydroxybenzamide] here?
**A.** improved diaphragm function and increased cumulative run distance

**Q.** What about the “muscle regeneration, degeneration, inflammation and function” value (mdx mice [1]; mdx mice (Milne et al. 2014)) of the same molecule?
**A.** enhance muscle regeneration, reduce muscle degeneration and inflammation, and preserve muscle function

**Q.** And the AUC ([2]; po, 1.5 % in diet, gastrocnemius, 1.5% edasalonexent in diet (group 1))?
**A.** 7620 ng·h/mL

**Q.** And the Cmax ([2]; po, 1.5 % in diet, gastrocnemius, 1.5% edasalonexent in diet (group 1), read-out: Cmax)?
**A.** 532 ng/mL

**Q.** What about the AUC ([2]; po, 1.5 % in diet, plasma, 1.5% edasalonexent in diet (group 1)) of the same molecule?
**A.** 524 ng·h/mL

**Q.** And the Cmax ([2]; po, 1.5 % in diet, plasma, 1.5% edasalonexent in diet (group 1), read-out: Cmax)?
**A.** 44.6 ng/mL

**Q.** What about the Tmax ([2]; plasma, group 2, oral QD 450 mg/kg/dose, day 3) of the same molecule?
**A.** 30 min

**Q.** And the Cmax ([2]; plasma, group 2, oral QD 450 mg/kg/dose, day 3, read-out: Cmax (±SE))?
**A.** 604 ± 83.3 ng/mL

**Q.** What about the AUC(0-t) ([2]; plasma, group 2, oral QD 450 mg/kg/dose) of the same molecule?
**A.** 1320 ng·h/mL

**Q.** What about the Tmax ([2]; plasma, group 3, oral TID 150 mg/kg/dose = 450 mg/kg/day, day 3) of the same molecule?
**A.** 30 min

**Q.** And the Cmax ([2]; plasma, group 3, oral TID 150 mg/kg/dose = 450 mg/kg/day, day 3, read-out: Cmax (±SE))?
**A.** 452 ± 47.6 ng/mL

**Q.** And the AUC(0-t) ([2]; plasma, group 3, oral TID 150 mg/kg/dose = 450 mg/kg/day)?
**A.** 1360 ± 211 ng·h/mL

**Q.** And the Tmax ([2]; plasma, group 4, oral TID 150/150/300 mg/kg/dose = 600 mg/kg/day, day 3)?
**A.** 30 min

**Q.** What about the Cmax ([2]; plasma, group 4, oral TID 150/150/300 mg/kg/dose = 600 mg/kg/day, day 3, read-out: Cmax (±SE)) of the same molecule?
**A.** 278 ± 46.3 ng/mL

**Q.** What about the AUC(0-t) ([2]; plasma, group 4, oral TID 150/150/300 mg/kg/dose = 600 mg/kg/day) of the same molecule?
**A.** 2270 ± 587 ng·h/mL

**Q.** What about the Cmean [2, 5] of the same molecule?
**A.** 332.8 ng/mL

**Q.** And the Cmin [2, 5]?
**A.** 149.4 ng/mL

**Q.** And the “AUC of single daily 450 mg/kg dose relative to edasalonexent in diet” value ([2]; group 2 (450 mg/kg QD) versus group 1 (1.5% in diet), plasma)?
**A.** ~2.5 fold

**Q.** What about the Cmin ([2]; plasma, 1.5% edasalonexent in diet (group 1)) of the same molecule?
**A.** 10.7 ng/mL

**Q.** And the Cmean ([2]; plasma, 1.5% edasalonexent in diet (group 1), from seventh day of dosing)?
**A.** 22.4 ng/mL

**Q.** What about the “muscle function and DMD disease progression” value (boys with DMD; 33 mg/kg TID (100 mg/kg/day), 60 weeks, compared to off-treatment control period) of the same molecule?
**A.** clinically meaningful slowing of disease progression; also recorded: preservation of muscle function and slowing of DMD disease progression

**Q.** And the “efficacy compared to the 133 mg/kg/day dosing regimen” value (boys with DMD; 100 mg/kg/day versus 133 mg/kg/day (33/33/67 mg/kg))?
**A.** equally effective

**Q.** And the “4-stair climb, average rate of change of speed” value (boys with DMD; [6])?
**A.** stabilized

**Q.** What about the “10-meter walk/run, average rate of change of speed” value (boys with DMD; [6]) of the same molecule?
**A.** stabilized

**Q.** And the “North Star Ambulatory Assessment (NSAA) score, rate of change” value (boys with DMD; [6])?
**A.** stabilized

**Q.** What about the “time to stand, average rate of change of speed” value (boys with DMD; [6]) of the same molecule?
**A.** stabilized

**Q.** What about the treatment effects (boys with DMD; boys affected by DMD enrolled at age 4-7, MoveDMD phase 2 trial and open-label extension) of the same molecule?
**A.** positive treatment effects

**Q.** What about the “change in 24 NF-κB regulated and inflammation-related gene transcripts, Day 7 versus Day 1” value (“change … Day 7 versus Day 1” for short) ([3]; 33 mg/kg/day) of the same molecule?
**A.** decreases were generally not noted

**Q.** And the “change … Day 7 versus Day 1” value ([3]; 67 mg/kg/day)?
**A.** not so pronounced

**Q.** What about the “change … Day 7 versus Day 1” value ([3]; 100 mg/kg/day) of the same molecule?
**A.** statistically significant decrease in all 24 transcripts; also recorded: most effective

**Q.** What about the “quadriceps muscle fibrosis (picrosirius red-stained area)” value (from here on “quadriceps muscle fibrosis”) (mdx mice [4]; [7]) of the same molecule?
**A.** reduced

**Q.** What about the “quadriceps muscle inflammation (hematoxylin-stained nuclear area)” value (“quadriceps muscle inflammation” for short) (mdx mice [4]; [7]) of the same molecule?
**A.** reduced

**Q.** And the “quadriceps muscle fibrosis” value (mdx mice [4]; [8])?
**A.** did not cause a significant reduction

**Q.** What about the “quadriceps muscle inflammation” value (mdx mice [4]; [8]) of the same molecule?
**A.** did not cause a significant reduction

**Q.** And the “quadriceps muscle fibrosis” value (mdx mice [4]; [9])?
**A.** further drove efficacy

**Q.** What about the “quadriceps muscle inflammation” value (mdx mice [4]; [9]) of the same molecule?
**A.** further drove efficacy

**Q.** And the “NF-κB activity (binding of p65 subunit to DNA, secretion of TNF-α)” value (NF-κB)?
**A.** decreases NF-κB activity
